What was measured:
Caspase 1 [1] = molecular target: T1, Caspase 1 (Homo sapiens, UniProt P29466); assay: Ex vivo stimulation: active caspase-1 in CD4 T (T-helper) cells after whole blood incubation with caspase inhibitors (Example 9); type: cell-based; settings: inhibitor 24 hrs, then with or without nigericin; for T-helper cell caspase-1 expression: COVID-19 whole blood samples
T1 construct: A Fam-FLICA probe specific for Caspase 1 was directly added to 50 μl PBMC; endogenous in cells; host or cells: PBMC (CD3-, CD3+, CD3+CD4+ lymphocytes) purified from human whole blood
T1 sequence (P29466 120-297 limits assumed): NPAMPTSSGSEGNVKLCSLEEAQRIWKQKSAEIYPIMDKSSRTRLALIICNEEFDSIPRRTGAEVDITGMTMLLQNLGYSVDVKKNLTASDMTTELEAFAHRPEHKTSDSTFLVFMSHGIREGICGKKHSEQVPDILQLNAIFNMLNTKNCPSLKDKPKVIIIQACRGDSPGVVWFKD
T1 sequence (P29466 317-404 limits assumed): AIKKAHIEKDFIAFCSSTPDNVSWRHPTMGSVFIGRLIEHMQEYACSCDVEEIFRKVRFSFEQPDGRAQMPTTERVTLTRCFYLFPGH
Method: Apoptosis and pyroptosis were measured by flow cytometry using fluorescent-labeled inhibitors of caspase probe assay (FLICA; Immunochemistry Technologies, Minneapolis, MN). As a control, PBMCs were stimulated with nigericin for 2 hours. FAM-FLICA probes specific for caspase-1 was added to 50 μl PBMC and incubated for 1h at 37° C. Cells were subsequently washed and stained for CD45 PE-CY7 [HI30], CD3 AF700 [UCHT1], CD4 PE [RPA-T4], CD45RO PerCP-EF710 [UCHL1], and Viability Dye 780 (Thermo Fisher Scientific, Carlsbad, CA). Samples were acquired on a 3 laser BD FACS Canto 10. CS&T beads (BD Bioscience, San Jose, CA) were acquired daily to ensure consistent performance of the Canto10. The CANTO10 utilized for this study was validated for T, B, NK, and dendritic cell immunophenotyping clinical diagnostic testing. Denovo FCS Express v6 clinical edition (De Novo Software, Pasadena, CA) was used for flow cytometric analyses.
Active caspase-1 in COVID-19+ patient samples. Whole blood from a COVID-19 positive patient was either (A) untreated or (B) treated with emricasan (1 μM, Sigma Aldrich, MO, SML2227-5MG) or selective caspase-1 inhibitor VX765 overnight at 37° C. in a water bath. Subsequently, PBMCs were purified (Accuspin System—Histopaque 1077; Sigma Aldrich, MO, A6929) and incubated with nigericin (Immunochemistry Technologies, MN) for 2h. A Fam-FLICA probe specific for active caspase-1 was added to 50 μl PBMC and then incubated for 1h at 37° C. PMBCs were washed with cell wash buffer (Immunochemistry Technologies, MN) and stained with CD45 PE-CY7 [H130], CD3 AF700 [UCHT1], CD4 PE [RPA-T4], CD45RO PerCP-EF710 [UCHL1], and Viability Dye 780 (Thermo Fisher Scientific, Carlsbad, CA). Lymphocytes were identified using a standard gating schematic that incorporated gating of lymphocytes on an FSC/SSC plot and singlets on a FSC-A/FSC-H plot. Lymphocytes were further identified as CD45+ on a CD45/SSC plot and subsequent CD3−, CD3+ and CD3+CD4+ cells were identified on a CD45+ CD3/CD4 plot. Shown are the active caspase-1 MFI and % positive for the three cellular populations indicated. […]

caspase-3 = molecular target: T2, caspase-3 (Homo sapiens, UniProt P42574); assay: Caspase-3 in RBCs incubated with patient plasma (Example 9); type: cell-based
T2 construct: EMR suppressed the caspase-3 up-regulation in the COVID-19 plasma incubated samples; endogenous in cells; host or cells: human red blood cells (healthy subjects' RBCs incubated with patient plasma)
T2 sequence (P42574 29-277): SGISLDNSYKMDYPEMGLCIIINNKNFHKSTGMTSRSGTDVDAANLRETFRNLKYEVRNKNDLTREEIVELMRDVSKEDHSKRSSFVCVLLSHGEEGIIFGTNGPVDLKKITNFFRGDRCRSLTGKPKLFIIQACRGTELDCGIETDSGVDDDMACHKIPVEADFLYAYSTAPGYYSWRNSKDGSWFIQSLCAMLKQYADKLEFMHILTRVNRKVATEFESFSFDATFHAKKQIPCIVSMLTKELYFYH
Method: Plasma was separated from whole blood following centrifugation at 960 RCF. Cells (RBC and WBC) were either incubated at 37° C. alone or in the presence of trypsin for 1 hour then washed with 10 packed cell volumes of RPMI 1640 incomplete medium. Plasma was either held at room temperature (18-25° C.) or heat inactivated at 56° C. for 1 hr. Plasma was added back to the RBC/WBC in a 1:1 ratio and incubated overnight, rocking at room temperature.
Cellular caspases are not limited to immune cells. […] In the process of Ficoll separation, a layer of RBCs contaminating the PBMC layer was observed, which layer was universally present in all samples from COVID-19 individuals (FIG. 6A). This finding was also present in up to 80% of COVID-19 convalescent subjects. Plasma from acutely infected subjects induced a similar finding when incubated overnight with plasma depleted whole blood of healthy patients.

Caspase 1 [2] = molecular target: T1, Caspase 1; assay: Active caspase-1 by FAM-FLICA flow cytometry in PBMCs from Emricasan-treated COVID-19(+) whole blood (Example 7); type: cell-based; settings: 1 μM
Method: Whole blood from COVID-19(+) patients was incubated either (A) without addition of Emricasan (Untreated) or (B) with Emricasan (Sigma Aldrich, MO, SML2227-5MG), 1 μM final concentration for 3.5 hours at room temperature (Treated). Following incubation with or without Emricasan, PBMCs were purified using an Accuspin System—Histopaque 1077 (Sigma Aldrich, MO, A6929) as per the manufacturer's instructions. Purified Treated and Untreated PBMCs were incubated with nigericin (Immunochemistry Technologies, MN) as per the manufacturer's instructions for 2 hours. A Fam-FLICA probe specific for Caspase 1 was directly added to 50 μl PBMC and then incubated for 1 hour at 37° C. PMBCs were washed with cell wash buffer (Immunochemistry Technologies, MN) to remove unbound FLICA probes. Washed PBMCs were FACS-sorted using CD45 PE-CY7 [H130], CD3 AF700 [UCHT1], CD4 PE [RPA-T4], CD45RO PerCP-EF710 [UCHL], and Viability Dye 780 (Thermo Fisher Scientific, Carlsbad, CA) to identify viable CD3−cells as well as CD3+ cells and CD3+ CD4+ T cells. Lymphocytes were identified using a standard gating schematic that incorporated gating of lymphocytes on a FSC/SSC plot and singlets on a FSC-A/FSC-H plot. Lymphocytes were further identified as CD45+ on a CD45/SSC plot and subsequent CD3−, CD3+, and CD3+ CD4+ cells were identified on a CD45+ CD3/CD4 plot.
In another experiment, whole blood was incubated with 1 μM Emricasan for 17 hours (overnight between 5 PM to 10 AM) at room temperature on a rocker. The same experiment described above to examine active caspase 1 in PBMCs was performed.

[3] = test system: red blood cell (RBC) layer in the PBMC layer ("red ring"); type: cell-based, human; settings: PBMCs from COVID-19 patient samples, 1 micromolar, room temperature, 17 hours
[4] = COVID-19(+) whole blood, 3.5 hours, room temperature, nigericin 2 hours, CD3-, CD3+, CD3+CD4+ cells, vs untreated, p≤0.005

Row | SMILES | T-helper cell caspase-1 expression (Caspase 1 [1]) | T-helper cell caspase-1 upregulation (Caspase 1 [1]; healthy subjects' whole blood) | RBC caspase-3 up-regulation (caspase-3; healthy subjects' RBCs incubated with COVID-19 plasma) | RBC caspase-3 baseline expression levels (caspase-3; influenza-plasma incubated samples) | active caspase-1 % positive cells (Caspase 1 [2]; [4]) | active caspase-1 MFI (Caspase 1 [2]; [4]) | inhibition of nigericin-induced Caspase-1 activity (Caspase 1 [2]; whole blood, 17 hours (overnight), room temperature on a rocker, 3 samples from COVID-19 patients) | "red ring" (RBC layer contaminating PBMCs) [3]
1 | C[C@H](NC(=O)C(=O)Nc1ccccc1C(C)(C)C)C(=O)N[C@@H](CC(=O)O)C(=O)COc1c(F)c(F)cc(F)c1F [Emricasan, (3S)-3-{[(2S)-2-{[2-(2-tert-butylanilino)-2-oxoacetyl]amino}propanoyl]amino}-4-oxo-5-(2,3,5,6-tetrafluorophenoxy)pentanoic acid] | suppressed | prevented its upregulation | suppressed | did not change | significant reduction | significant reduction | seen in only ⅓ sample | decrease
2 | CCO[C@@H]1OC(=O)C[C@@H]1NC(=O)[C@@H]1CCCN1C(=O)[C@@H](NC(=O)c1ccc(N)c(Cl)c1)C(C)(C)C [VX765, Belnacasan] | did not show a strong similar suppressive effect | – | – | – | – | – | – | –

Source: patent US12377127B2, “Treatment for diseases caused by RNA virus SARS-CoV-2” (Amerimmune, LLC, priority 2020, dated 2025)
